# According to ChEMBL document CHEMBL1201862, “PubChem BioAssay data set” (2004):
# Where “and” joins values, the source holds several entries; their conditions need not be identical. Identical values can stand only once.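 96-well plates; 48 h exposure; 5 concentrations. Endpoints by linear interpolation between flanking doses. Not reached: highest tested concentration assigned. The concentration for 50% growth inhibition is given as GI50.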 Calls of active or inactive are those of the source. Rule as the data show it: active = GI50 up to about 1.1 µM and inactive = higher. Residues, ends and D or L forms follow the SMILES beside them. *: point of attachment. X38 = O=C(c1ccc(-c2ccc(Cl)cc2Cl)o1)*
# How the values were obtained:
# Experiment in all cases: NCI tumour cell line growth inhibition, 48 h
# [1] = test system: 786-0
# [2] = test system: ACHN
# [3] = test system: COLO 205
# [4] = test system: IGROV-1
# [5] = test system: MCF7
# [6] = test system: MDA-N
# [7] = test system: NCI-H460
# [8] = test system: NCI-H522
# [9] = test system: OVCAR-8
# [10] = test system: PC-3
# [11] = test system: RPMI-8226
# [12] = test system: SK-MEL-5
# [13] = test system: SR
# [14] = test system: T47D
# [15] = test system: A498
# [16] = test system: CAKI-1
# [17] = test system: DU-145
# [18] = test system: NCI-H23
# [19] = test system: RXF 393
# [20] = test system: SK-MEL-2
SMILES,GI50 [1],GI50 [2],GI50 [3],GI50 [4],GI50 [5],GI50 [6],GI50 [7],GI50 [8],GI50 [9],GI50 [10],GI50 [11],GI50 [12],GI50 [13],GI50 [14],GI50 [15],GI50 [16],GI50 [17],GI50 [18],GI50 [19],GI50 [20]
CC(=O)OC1CC[C@@]2(C)C(C1)CC(OC(C)=O)[C@@H]1C2CC(OC(C)=O)[C@]2(C)C(C(C)CC=C(c3ccc(Cl)cc3)c3ccc(Cl)cc3)CCC12 (stereo partly specified),> 100 µM (inactive),23.3 µM (inactive),> 100 µM (inactive),> 100 µM (inactive),38.8 µM (inactive),> 100 µM (inactive),26.3 µM (inactive),21.8 µM (inactive),80.4 µM (inactive),23.6 µM (inactive),5.33 µM (inactive),55.1 µM (inactive),20.2 µM (inactive),32.1 µM (inactive),,,,,,
CC(=O)OC(/C=C/c1ccccc1)P1(=O)N(CC(C)(C)C)[C@@H]2CCCC[C@H]2N1CC(C)(C)C (stereo partly specified),9.62 µM (inactive) and 7.38 µM (inactive),10 µM (inactive) and 7.57 µM (inactive),3.69 µM (inactive) and 3.6 µM (inactive),5.11 µM (inactive) and 6.78 µM (inactive),4.79 µM (inactive) and 4.61 µM (inactive),11 µM (inactive) and 7.73 µM (inactive),6.24 µM (inactive) and 4.84 µM (inactive),3.76 µM (inactive) and 3.32 µM (inactive),6.56 µM (inactive) and 7.1 µM (inactive),3.44 µM (inactive) and 3.03 µM (inactive),3.1 µM (inactive),5.26 µM (inactive) and 6.3 µM (inactive),2.92 µM (inactive) and 4.02 µM (inactive),,8.28 µM (inactive),12.8 µM (inactive) and 8.99 µM (inactive),10.4 µM (inactive) and 9.75 µM (inactive),7.05 µM (inactive) and 5.18 µM (inactive),3.24 µM (inactive) and 6.08 µM (inactive),11.1 µM (inactive) and 5.96 µM (inactive)
Nc1nc(N)c2nc(CNc3ccc(C(=O)NC(CCNC(=O)c4ccccc4C(=O)O)C(=O)O)cc3)cnc2n1 (stereo unspecified),0.01 µM (active),0.01 µM (active),,< 0.0212 µM (active),0.01 µM (active),0.00785 µM (active),0.01 µM (active),0.0897 µM (active),0.01 µM (active),0.01 µM (active),0.083 µM (active),< 0.0286 µM (active),0.01 µM (active),,0.054 µM (active),0.01 µM (active),0.0339 µM (active),< 0.0226 µM (active),,> 100 µM (inactive)
COC(=O)C(CC(C)C)NC(=O)C(Cc1ccccc1)NC(=O)C1CCCN1C(=O)C(CO)NC(=O)c1ccc(-c2ccc(Cl)cc2Cl)o1 (stereo unspecified) (X38-SPFL-OMe; configuration not given here),25.1 µM (inactive),26.5 µM (inactive),16 µM (inactive),,27.5 µM (inactive),35.5 µM (inactive),17.3 µM (inactive),28.1 µM (inactive),36.4 µM (inactive),31.6 µM (inactive),17.1 µM (inactive),17.3 µM (inactive),,28.9 µM (inactive),24.5 µM (inactive),28.3 µM (inactive),38 µM (inactive),27.7 µM (inactive),17.8 µM (inactive),16.9 µM (inactive)
C=CCOC(=O)C[C@H](NC(=O)[C@H](Cc1ccc(O)cc1)NCC(F)(F)F)C(=O)OCC=C,> 100 µM (inactive),> 100 µM (inactive),31.8 µM (inactive),> 100 µM (inactive),53.8 µM (inactive),35.3 µM (inactive),59.6 µM (inactive),25 µM (inactive),> 100 µM (inactive),77.8 µM (inactive),36.1 µM (inactive),30.5 µM (inactive),34 µM (inactive),23.6 µM (inactive),,> 100 µM (inactive),,37.5 µM (inactive),> 100 µM (inactive),21.3 µM (inactive)
COC(=O)c1c(C)cccc1CC1Cc2c(C)cccc2C1=O (stereo unspecified),32.4 µM (inactive),35.7 µM (inactive),21.2 µM (inactive),33.3 µM (inactive),,30.3 µM (inactive),35 µM (inactive),13.2 µM (inactive),48.3 µM (inactive),34.4 µM (inactive),,20.7 µM (inactive),,27.5 µM (inactive),22.6 µM (inactive),33.4 µM (inactive),60.1 µM (inactive),25.8 µM (inactive),27.9 µM (inactive),18.7 µM (inactive)
CC(=O)/C=C1\Nc2ccc([N+](=O)[O-])cc2N\C1=C/C(C)=O,58.1 µM (inactive),42.5 µM (inactive),58.2 µM (inactive),39.5 µM (inactive),,37.3 µM (inactive),21.5 µM (inactive),16 µM (inactive),33.5 µM (inactive),44.3 µM (inactive),20.6 µM (inactive),24.7 µM (inactive),17.9 µM (inactive),33.8 µM (inactive),25.4 µM (inactive),58.2 µM (inactive),80.5 µM (inactive),25.1 µM (inactive),64.3 µM (inactive),29.2 µM (inactive)
CCN(CC)c1nc(N(C)C)c2cc(OC)ccc2n1,20.7 µM (inactive),33 µM (inactive),11.7 µM (inactive),30.8 µM (inactive),22.2 µM (inactive),24.7 µM (inactive),20 µM (inactive),14.6 µM (inactive),26.2 µM (inactive),33.2 µM (inactive),20.1 µM (inactive),17.4 µM (inactive),21.9 µM (inactive),,32.6 µM (inactive),44.6 µM (inactive),42.2 µM (inactive),29.6 µM (inactive),24.3 µM (inactive),36.6 µM (inactive)
CCOC(CCCN1CCC2(CC1)C(=O)N(C)CN2c1ccccc1)(OCC)c1ccc(F)cc1,14.6 µM (inactive),5.16 µM (inactive),2.52 µM (inactive),8.41 µM (inactive),3.8 µM (inactive),11.6 µM (inactive),,16.9 µM (inactive),15.4 µM (inactive),15.7 µM (inactive),10.5 µM (inactive),3.45 µM (inactive),,4.95 µM (inactive),,6.59 µM (inactive),6.87 µM (inactive),16.6 µM (inactive),19.2 µM (inactive),
C/C=C\C(CC(=O)O)CN1CCC2=C(C1)C(S(=O)(=O)C(F)(F)F)c1ccccc12 (stereo unspecified),> 100 µM (inactive),> 100 µM (inactive),> 100 µM (inactive),> 100 µM (inactive),> 100 µM (inactive),> 100 µM (inactive),> 100 µM (inactive),> 100 µM (inactive),> 100 µM (inactive),> 100 µM (inactive),> 100 µM (inactive),> 100 µM (inactive),> 100 µM (inactive),,> 100 µM (inactive),> 100 µM (inactive),> 100 µM (inactive),> 100 µM (inactive),> 100 µM (inactive),> 100 µM (inactive)
COC(=O)c1cc(C)ccc1C1CN=NC12Cc1cccc(C)c1C2=O (stereo unspecified),56.6 µM (inactive),28.2 µM (inactive),,37.7 µM (inactive),30.1 µM (inactive),34.8 µM (inactive),26.2 µM (inactive),21.3 µM (inactive),33.1 µM (inactive),,16.8 µM (inactive),18 µM (inactive),26.2 µM (inactive),12.3 µM (inactive),47.6 µM (inactive),43.3 µM (inactive),42.5 µM (inactive),42.7 µM (inactive),25 µM (inactive),
COc1ccc(-c2nc(-c3ccc(OC)cc3)n(-c3ccccc3)n2)cc1,> 100 µM (inactive),> 100 µM (inactive),46.9 µM (inactive),> 100 µM (inactive),> 100 µM (inactive),> 100 µM (inactive),> 100 µM (inactive),11.8 µM (inactive),> 100 µM (inactive),> 100 µM (inactive),,54.1 µM (inactive),,22.9 µM (inactive),45.7 µM (inactive),> 100 µM (inactive),> 100 µM (inactive),39.4 µM (inactive),32.8 µM (inactive),> 100 µM (inactive)
COc1cc2oc3c(c(=O)c2c(O)c1/C=C/C(C)C)C(C=C(C)C)Oc1cc(O)ccc1-3 (stereo unspecified),16.2 µM (inactive),15.4 µM (inactive),15.1 µM (inactive),13.5 µM (inactive),14.4 µM (inactive),16.9 µM (inactive),14.5 µM (inactive),16.8 µM (inactive),16.2 µM (inactive),15.6 µM (inactive),14.7 µM (inactive),18.5 µM (inactive),,16.4 µM (inactive),24.7 µM (inactive),18 µM (inactive),16.3 µM (inactive),15.7 µM (inactive),,16 µM (inactive)
Nc1ccc(C(=O)Nc2ccccc2N)cc1 [DINALINE],> 66.4 µM (inactive),31.7 µM (inactive),17.6 µM (inactive),31.1 µM (inactive),20.9 µM (inactive),32.1 µM (inactive),18.5 µM (inactive),11.1 µM (inactive),8.99 µM (inactive),31.5 µM (inactive),5.68 µM (inactive),16.3 µM (inactive),16.3 µM (inactive),,27.5 µM (inactive),42.8 µM (inactive),41.7 µM (inactive),29.1 µM (inactive),38.2 µM (inactive),23.3 µM (inactive)
Cc1ccc(-n2cc(-c3ccc(Cl)cc3)c3c2N=CN2N=C(c4ccco4)NC32)cc1 (stereo unspecified),4.67 µM (inactive),4.24 µM (inactive),9.18 µM (inactive),7.62 µM (inactive),23.7 µM (inactive),19.5 µM (inactive),4.49 µM (inactive),15.8 µM (inactive),6.28 µM (inactive),12.8 µM (inactive),,> 100 µM (inactive),0.78 µM (active),,4.22 µM (inactive),10.1 µM (inactive),> 100 µM (inactive),19.7 µM (inactive),11.2 µM (inactive),10 µM (inactive)
